Paper PMC7138139 (Molecular and cellular neurosciences, 2020)

Columns and labels:
[1] = biological target: T1, Olfr774 (Mus musculus, UniProt Q7TRI5); experiment: Glosensor cAMP luminescence dose-response, Hana3A cells; assay type: cell-based; conditions: agonist
T1 sequence (Q7TRI5 1-312): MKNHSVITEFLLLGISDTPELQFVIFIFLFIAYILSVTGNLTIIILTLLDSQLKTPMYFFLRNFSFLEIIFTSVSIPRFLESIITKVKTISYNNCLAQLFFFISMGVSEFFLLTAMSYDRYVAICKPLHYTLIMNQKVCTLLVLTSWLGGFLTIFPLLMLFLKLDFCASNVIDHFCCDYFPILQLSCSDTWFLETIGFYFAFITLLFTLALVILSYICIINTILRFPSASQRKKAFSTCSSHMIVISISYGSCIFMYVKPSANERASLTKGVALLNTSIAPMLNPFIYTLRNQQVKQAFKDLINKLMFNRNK

[2] = biological target: T2, Olfr937 (Mus musculus, UniProt Q9EQB4); experiment: as above; assay type: cell-based; conditions: antagonist of whiskey lactone response; 316 uM
T2 sequence (Q9EQB4 1-311): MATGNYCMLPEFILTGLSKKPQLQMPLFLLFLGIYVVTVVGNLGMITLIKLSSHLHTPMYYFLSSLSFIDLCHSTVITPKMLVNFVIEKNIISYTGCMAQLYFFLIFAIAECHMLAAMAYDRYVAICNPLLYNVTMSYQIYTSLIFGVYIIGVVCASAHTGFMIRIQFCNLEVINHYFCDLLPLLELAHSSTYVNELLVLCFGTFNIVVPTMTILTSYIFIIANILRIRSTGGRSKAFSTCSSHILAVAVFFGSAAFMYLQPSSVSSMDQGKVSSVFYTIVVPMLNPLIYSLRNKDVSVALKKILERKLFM

CCCCCCCCCCC=O [undecanal]
Glosensor cAMP luminescence dose-response, Hana3A cells [1]: In vitro testing confirmed that Olfr774 responded to undecanal but not to bourgeonal

CC(C)(C)c1ccc(CCC=O)cc1 [bourgeonal, 3-(4-tert-butylphenyl)propanal]
Glosensor cAMP luminescence dose-response, Hana3A cells [2]: bourgeonal and lyral also suppressed Olfr937 responses to whiskey lactone, with bourgeonal being more effective
